Measurements reported in patent US11220503B2, “Phthalazine derivatives, preparation method, pharmaceutical composition and usage thereof” (Shanghai SIMR Biotech Co., Ltd., priority 2015, dated 2022).
Read-outs that look alike come from different tables or passages of the source.

Biological target: T1, α5β3γ2 receptor (Homo sapiens, UniProt P18507+P31644)
T1 construct: expressed in transfected cells; host or cells: HEK-293 (stably transfected)
Assay: Cell level screening: whole cell patch clamp, inverse agonist efficacy
Assay type: cell-based
Settings: for inhibition at 0.001 µM: Con. 1 nM; for inhibition at 0.01 µM: Con. 10 nM; for inhibition at 0.05 µM: Con. 50 nM; for inhibition at 1 µM: Con. 1000 nM; for inverse agonism efficacy of the compound/α5IA inverse agonism efficacy: ratio to α5IA, compound 100 nM
Method: The inventors used electrophysiological methods to assay the inverse agonist efficacy of the substance to be tested. The detailed procedures are as follows: (1) Different subunits of GABAA receptors were expressed in human embryonic kidney cells 293 (HEK293). The cells were cultured in a culture medium and used as a cell model for screening potential analgesics. The α, β and γ subunits are necessary to form complete functional GABAA receptors. In this example, the inventor has established the following cell model: (a) α5 subunit (protein sequence is GenBank accession number: NP_001158509), β3 subunit (protein sequence is GenBank accession number: NP_068712) and γ2 subunit (protein sequence is GenBank accession number: NP_944494) were expressed in HEK-293 cell lines at the same time, which formed the complete functional GABAA receptors. (2) Cells were stably transfected HEK-293 cells expressing α5β3γ2 receptor, which were labeled by green fluorescent protein (GFP). Cells were grown in 10 cm dishes. The cells were passaged after reaching 80-90% confluence. During passaging, the culture medium was removed and discarded, 3 mL DMEM medium (Gibco™) was added to the dishes, the dishes were shaken slightly, and DMEM was removed and discarded. 3 mL Trypsin (Trypsin-EDTA 0.05%, Gibco™) was added and cells were digested at 37° C. for 3 minutes. Then 3 mL complete growth medium (DMEM+10% horse serum (Gibco™)) was added and the cells at the bottom of the culture dishes were dispersed. The cell suspension were transferred to a 15 mL centrifugal tube (Corning®) and then centrifuged at 200 g for 3 minutes. The supernatant was discarded, 4 mL complete growth medium was added, and the cells were resuspended by gently blowing. The cell suspension was diluted by 1:5 or 1:10 for subculturing. The cell suspension was diluted by 1:12 for electrophysiology experiment, which are added to the 24 well plate (Corning®) which has a glass slide pre-treated with poly-D-lysine. The cells were adhered to the slide before the experiment was conducted. The cells were maintained in culture for no more than 24 hours before use. (3) Compound concentration: for screening, all compounds were diluted to a final concentration of 100 nM. GABA was diluted at the concentration of 0.05-0.1 μM. The compounds were at the concentration of 1 nM, 10 nM, 50 nM, 100 nM and 1000 nM in dose-inverse agonism efficacy (%) experiment. The whole cell patch clamp technique was used in electrophysiology experiments. The extracellular solution (ECS) contained: 150 mM NaCl, 5 mM KCl, 2.5 mM CaCl2, 1 mM MgCl2, 10 mM HEPES and 10 mM glucose (pH 7.4); Patch electrodes were filled with an intracellular solution containing: 140 mM KCl, 5 mM EGTA, 10 mM HEPES (adjusted to pH 7.4 with KOH and to 320-330 mOsm with water). The currents were recorded by an EPC-10 amplifier and the PatchMaster software (HEKA). Patch electrodes with a resistance of 5-6 MΩ were pulled from borosilicate glass (Sutter). The diluted compounds were perfused by OCTAFLOWII system. GFP positive and independently growing cells were selected for recording. During recording, the membrane voltage was clamped at −60 mV. During experiment, the cells were firstly perfused with ECS for 20 seconds. When the baseline reached to a stable state, cells were then perfused with GABA solution. Then the current induced by GABA can be detected. After about 20-40 seconds, the current was stable. ECS was switched to compounds solution and the effects of the compounds were detected. At last, the perfusion solution was switched to ECS. The experiment was finished when the post-baseline returned to the pre-baseline before compounds perfusion. Only the data whose pre-baseline and post-baseline are at almost the same level were used for analysis. GABA was diluted at the concentration of 0.05-0.1 μM in ECS. Then, compounds were diluted at the desired concentration in GABA ECS. (4) Currents were analyzed with the PatchMaster (HEKA) software. […]

[1] = HEK293, compound 100 nM, GABA 0.05-0.1 μM, HEK293 α5β3γ2, clamped at −60 mV, (Ipost-Ipre)*100/Ipre, read-out: inverse agonism efficacy(%)
[2] = dose-efficacy, single replicates, read-out: Inverse agonism-Efficacy
[3] = dose-efficacy, Con. 100 nM, single replicates, read-out: Inverse agonism-Efficacy

T1 sequence (P31644 32-462): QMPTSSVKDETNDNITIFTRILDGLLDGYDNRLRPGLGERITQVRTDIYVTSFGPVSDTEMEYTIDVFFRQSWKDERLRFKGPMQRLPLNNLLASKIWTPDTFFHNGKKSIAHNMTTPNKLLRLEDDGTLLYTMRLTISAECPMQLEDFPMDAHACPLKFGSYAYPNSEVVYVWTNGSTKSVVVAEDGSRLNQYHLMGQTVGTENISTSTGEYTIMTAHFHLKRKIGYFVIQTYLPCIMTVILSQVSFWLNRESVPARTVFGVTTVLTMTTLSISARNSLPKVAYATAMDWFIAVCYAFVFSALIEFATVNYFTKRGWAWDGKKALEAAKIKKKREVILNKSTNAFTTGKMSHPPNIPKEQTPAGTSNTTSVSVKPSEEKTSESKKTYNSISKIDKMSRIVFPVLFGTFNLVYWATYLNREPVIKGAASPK
T1 sequence (P28472 26-473 isoform P28472-2 partner limits assumed): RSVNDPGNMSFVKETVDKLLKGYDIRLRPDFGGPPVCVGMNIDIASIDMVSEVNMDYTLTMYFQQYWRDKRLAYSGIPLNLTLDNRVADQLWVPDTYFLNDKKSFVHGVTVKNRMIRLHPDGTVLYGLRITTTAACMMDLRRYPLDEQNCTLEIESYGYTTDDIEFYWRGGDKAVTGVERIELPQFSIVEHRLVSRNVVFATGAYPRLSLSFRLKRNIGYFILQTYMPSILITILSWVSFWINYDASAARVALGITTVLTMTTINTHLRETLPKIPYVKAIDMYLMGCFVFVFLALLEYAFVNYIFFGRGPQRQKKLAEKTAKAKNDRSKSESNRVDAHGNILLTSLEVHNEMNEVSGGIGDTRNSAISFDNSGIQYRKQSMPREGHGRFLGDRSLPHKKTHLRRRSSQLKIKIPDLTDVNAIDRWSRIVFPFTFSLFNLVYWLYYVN
T1 sequence (P18507 40-475): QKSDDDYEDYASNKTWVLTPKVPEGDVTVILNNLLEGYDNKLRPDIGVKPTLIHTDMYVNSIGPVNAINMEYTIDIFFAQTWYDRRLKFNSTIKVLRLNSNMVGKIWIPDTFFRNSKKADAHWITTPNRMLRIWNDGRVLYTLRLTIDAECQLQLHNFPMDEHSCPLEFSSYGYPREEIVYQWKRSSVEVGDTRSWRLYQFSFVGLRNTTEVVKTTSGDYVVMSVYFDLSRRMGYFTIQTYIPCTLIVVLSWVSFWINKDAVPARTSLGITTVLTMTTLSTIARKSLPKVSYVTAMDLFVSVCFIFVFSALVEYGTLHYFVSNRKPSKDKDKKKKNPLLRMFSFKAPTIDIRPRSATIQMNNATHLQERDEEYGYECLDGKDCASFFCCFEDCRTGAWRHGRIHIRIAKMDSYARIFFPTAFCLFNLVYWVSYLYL

SMILES	inhibition at 0.1 µM [1] [%]	inhibition at 0.001 µM [2] [%]	inhibition at 0.01 µM [2] [%]	inhibition at 0.05 µM [2] [%]	inhibition at 0.1 µM [3] [%]	inhibition at 1 µM [2] [%]	inverse agonism efficacy of the compound/α5IA inverse agonism efficacy
Cc1cc(-c2nnc3c4ccccc4c(OCc4ccc(C(=O)N(C)C)cn4)nn23)no1 [Compound 06, N,N-dimethyl-6-(((3-(5-methylisoxazol-3-yl)-[1,2,4]triazolo[3,4-a]phthalazin-6-yl)oxy)methyl)nicotinamide]	36	10	17	23.1	26	32.3	1.596
Cc1nc(-c2nnc3c4ccccc4c(OCc4ccc(C(=O)N[C@H](C)CO)cc4C#N)nn23)no1 [Compound 31, (R)-3-cyano-N-(1-hydroxypropan-2-yl)-4-(((3-(5-methyl-1,2,4-oxadiazol-3-yl)-[1,2,4]triazolo[3,4-a]phthalazin-6-yl)oxy)methyl)benzamide]	47.8						2.1179
Cc1cc(-c2nnc3c4ccccc4c(OCc4ccc(C(=O)N[C@H](C)CO)cc4Br)nn23)no1 [Compound 32, (R)-3-bromo-N-(1-hydroxypropan-2-yl)-4-(((3-(5-methylisoxazol-3-yl)-[1,2,4]triazolo[3,4-a]phthalazin-6-yl)oxy)methyl)benzamide]	39.2						1.739
O=C(NN1CCOCC1)c1ccc(COc2nn3c(-c4cc(CO)on4)nnc3c3ccccc23)nc1 [Compound 33, 6-(((3-(5-(hydroxymethyl)isoxazol-3-yl)-[1,2,4]triazolo[3,4-a]phthalazin-6-yl)oxy)methyl)-N-morpholinonicotinamide]	33						1.463
Cn1cc(NC(=O)c2ccc(COc3nn4c(-c5cc(CO)on5)nnc4c4ccccc34)nc2)cn1 [Compound 37, 6-(((3-(5-(hydroxymethyl)isoxazol-3-yl)-[1,2,4]triazolo[3,4-a]phthalazin-6-yl)oxy)methyl)-N-(1-methyl-1H-pyrazol-4-yl)nicotinamide]	32						1.419
O=C(c1ccc(COc2nn3c(-c4cc(CO)on4)nnc3c3ccccc23)nc1)N1CCOCC1 [Compound 41, (6-(((3-(5-(hydroxymethyl)isoxazol-3-yl)-[1,2,4]triazolo[3,4-a]phthalazin-6-yl)oxy)methyl)pyridin-3-yl)(morpholino)methanone]	42.1						1.867
CN(C)C(=O)c1ccc(COc2nn3c(-c4cc(CO)on4)nnc3c3ccccc23)nc1 [Compound 45, 6-(((3-(5-(hydroxymethyl)isoxazol-3-yl)-[1,2,4]triazolo[3,4-a]phthalazin-6-yl)oxy)methyl)-N,N-dimethylnicotinamide]	30.2						1.339
NNC(=O)c1ccc(COc2nn3c(-c4cc(CO)on4)nnc3c3ccccc23)nc1 [Compound 51, 6-(((3-(5-(hydroxymethyl)isoxazol-3-yl)-[1,2,4]triazolo[3,4-a]phthalazin-6-yl)oxy)methyl)nicotinohydrazide]	30.5						1.351
O=C(NN1CCS(=O)(=O)CC1)c1ccc(COc2nn3c(-c4cc(CO)on4)nnc3c3ccccc23)nc1 [Compound 54, N-(1,1-dioxidothiomorpholino)-6-(((3-(5-(hydroxymethyl)isoxazol-3-yl)-[1,2,4]triazolo[3,4-a]phthalazin-6-yl)oxy)methyl)nicotinamide]	34						1.508
C[C@H](CO)NC(=O)c1ccc(COc2nn3c(-c4ccoc4)nnc3c3ccccc23)nc1 [Compound 59, (R)-6-(((3-(furan-3-yl)-[1,2,4]triazolo[3,4-a]phthalazin-6-yl)oxy)methyl)-N-(1-hydroxypropan-2-yl)nicotinamide]	39						1.73
C[C@H](CO)NC(=O)c1ccc(COc2nn3c(-c4ccsc4)nnc3c3ccccc23)nc1 [Compound 60, (R)—N-(1-hydroxypropan-2-yl)-6-(((3-(thiophen-3-yl)-[1,2,4]triazolo[3,4-a]phthalazin-6-yl)oxy)methyl)nicotinamide]	32.6						1.447
Cc1nc(COc2nn3c(-c4cc(CO)on4)nnc3c3ccccc23)ccc1C(=O)N[C@H](C)CO [Compound 61, (R)-6-(((3-(5-(hydroxymethyl)isoxazol-3-yl)-[1,2,4]triazolo[3,4-a]phthalazin-6-yl)oxy)methyl)-N-(1-hydroxypropan-2-yl)-2-methylnicotinamide]	46.2						2.047
Cc1cc(-c2nnc3c4ccccc4c(OCc4cn(C)nn4)nn23)no1 [α5IA, reference compound]	22.6	4.2	9.4	22.1	19	20.7	
